# Test results reported in the supplement of paper PMC10307832.
# Assays:
# Test in all cases: relative viability (nuclei count vs DMSO), 5 days (fraction); higher = more cells survive
# NCI-H1666 = tested on: NCI-H1666
# In short: (§1)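 A single step with final 0.05% Triton X-100, 1% formaldehyde and 1 ug/ml Hoechst fixed the cells and stained nuclei 5 days after treatment. Lung cancer cell lines in 1536-well plates had been treated by pin tool the day after seeding with one drug alone or a fixed anchor-drug dose plus five library-drug doses (not always all listed) in √10 steps, and nuclei were counted on 4× images. Relative viability is the ratio of nuclei in treated wells to nuclei in vehicle wells, taken as the median of duplicate plates.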
# NCI-H661 = tested on: NCI-H661
# In short: as §1
# CAL-12T = tested on: CAL-12T
# In short: as §1
# NCI-H727 = tested on: NCI-H727
# In short: as §1
# NCI-H1650 = tested on: NCI-H1650
# In short: as §1
# NCI-H441 = tested on: NCI-H441
# In short: as §1
# NCI-H1437 = tested on: NCI-H1437
# In short: as §1
# NCI-H2023 = tested on: NCI-H2023
# In short: as §1
# EKVX = tested on: EKVX
# In short: as §1
# 201T = tested on: 201T
# In short: as §1
# LU99A = tested on: LU99A
# In short: as §1
# ABC-1 = tested on: ABC-1
# In short: as §1
# NCI-H838 = tested on: NCI-H838
# In short: as §1
# NCI-H3122 = tested on: NCI-H3122
# In short: as §1
# NCI-H2009 = tested on: NCI-H2009
# In short: as §1
# PC-14 = tested on: PC-14
# In short: as §1
# COR-L 105 = tested on: COR-L 105
# In short: as §1
# BEN = tested on: BEN
# In short: as §1
# COR-L23 = tested on: COR-L23
# In short: as §1
# HARA = tested on: HARA
# In short: as §1
# HCC-366 = tested on: HCC-366
# In short: as §1
compound,measurement,setting,value
CC(C)Oc1cc(Nc2nc(N[C@@H](C)c3ccc(F)cn3)ncc2Cl)n[nH]1 [AZ23] + CC(C)C[C@H](NC(=O)[C@H](Cc1ccccc1)NC(=O)c1cnccn1)B(O)O [Bortezomib] (partner 0.002 µM),relative viability,NCI-H1666; first compound 0.01 µM,0.725
same,relative viability,NCI-H1666; first compound 0.03162 µM,0.878
same,relative viability,NCI-H1666; first compound 0.3162 µM,0.889
same,relative viability,NCI-H661; first compound 0.01 µM,0.828
same,relative viability,NCI-H661; first compound 0.03162 µM,0.845
same,relative viability,NCI-H661; first compound 0.3162 µM,0.773
same,relative viability,CAL-12T; first compound 0.03162 µM,1.01
same,relative viability,CAL-12T; first compound 0.3162 µM,0.876
same,relative viability,NCI-H727; first compound 0.01 µM,0.855
same,relative viability,NCI-H727; first compound 0.03162 µM,0.855
same,relative viability,NCI-H727; first compound 0.3162 µM,0.867
same,relative viability,NCI-H1650; first compound 0.01 µM,0.189
same,relative viability,NCI-H1650; first compound 0.03162 µM,0.242
same,relative viability,NCI-H1650; first compound 0.3162 µM,0.187
same,relative viability,NCI-H441; first compound 0.01 µM,0.833
same,relative viability,NCI-H441; first compound 0.03162 µM,1.05
same,relative viability,NCI-H441; first compound 0.3162 µM,0.678
same,relative viability,NCI-H1437; first compound 0.01 µM,0.541
same,relative viability,NCI-H1437; first compound 0.03162 µM,0.484
same,relative viability,NCI-H1437; first compound 0.3162 µM,0.569
same,relative viability,NCI-H2023; first compound 0.03162 µM,0.959
same,relative viability,NCI-H2023; first compound 0.3162 µM,1.22
same,relative viability,EKVX; first compound 0.01 µM,1.52
same,relative viability,EKVX; first compound 0.03162 µM,1.26
same,relative viability,EKVX; first compound 0.3162 µM,1.01
same,relative viability,201T; first compound 0.01 µM,1.18
same,relative viability,201T; first compound 0.03162 µM,1.07
same,relative viability,201T; first compound 0.3162 µM,1.13
same,relative viability,LU99A; first compound 0.01 µM,1.13
same,relative viability,LU99A; first compound 0.03162 µM,1.2
same,relative viability,LU99A; first compound 0.3162 µM,1.13
same,relative viability,ABC-1; first compound 0.01 µM,0.29
same,relative viability,ABC-1; first compound 0.03162 µM,0.269
same,relative viability,ABC-1; first compound 0.3162 µM,0.255
same,relative viability,NCI-H838; first compound 0.01 µM,0.772
same,relative viability,NCI-H838; first compound 0.03162 µM,0.702
same,relative viability,NCI-H838; first compound 0.3162 µM,0.757
same,relative viability,NCI-H3122; first compound 0.01 µM,1.04
same,relative viability,NCI-H3122; first compound 0.03162 µM,1.02
same,relative viability,NCI-H3122; first compound 0.3162 µM,1.12
same,relative viability,NCI-H2009; first compound 0.01 µM,1.1
same,relative viability,NCI-H2009; first compound 0.03162 µM,1.06
same,relative viability,NCI-H2009; first compound 0.3162 µM,1.21
same,relative viability,PC-14; first compound 0.01 µM,0.774
same,relative viability,PC-14; first compound 0.03162 µM,1.04
same,relative viability,PC-14; first compound 0.3162 µM,0.917
same,relative viability,COR-L 105; first compound 0.01 µM,0.733
same,relative viability,COR-L 105; first compound 0.03162 µM,1.04
same,relative viability,COR-L 105; first compound 0.3162 µM,0.757
same,relative viability,BEN; first compound 0.01 µM,0.817
same,relative viability,BEN; first compound 0.03162 µM,1.08
same,relative viability,BEN; first compound 0.3162 µM,0.867
same,relative viability,COR-L23; first compound 0.01 µM,0.921
same,relative viability,COR-L23; first compound 0.03162 µM,1.27
same,relative viability,COR-L23; first compound 0.3162 µM,1.04
same,relative viability,HARA; first compound 0.01 µM,1.04
same,relative viability,HARA; first compound 0.03162 µM,1.1
same,relative viability,HARA; first compound 0.3162 µM,1.27
same,relative viability,HCC-366; first compound 0.01 µM,1.26
same,relative viability,HCC-366; first compound 0.03162 µM,1.34
same,relative viability,HCC-366; first compound 0.3162 µM,1.1
C[C@@H]1CN(CC(=O)Nc2ccc3c(c2)Cc2cccc(-c4cc(=O)cc(N5CCOCC5)o4)c2S3)C[C@H](C)O1 + CC(C)C[C@H](NC(=O)[C@H](Cc1ccccc1)NC(=O)c1cnccn1)B(O)O [Bortezomib] (partner 0.002 µM),relative viability,NCI-H1666; first compound 0.04 µM,0.872
same,relative viability,NCI-H1666; first compound 0.1265 µM,0.993
same,relative viability,NCI-H1666; first compound 0.4 µM,0.823
same,relative viability,NCI-H1666; first compound 4 µM,0.643
same,relative viability,NCI-H661; first compound 0.1265 µM,0.798
same,relative viability,NCI-H661; first compound 0.4 µM,0.765
same,relative viability,NCI-H661; first compound 4 µM,0.778
same,relative viability,CAL-12T; first compound 0.04 µM,1.06
same,relative viability,CAL-12T; first compound 0.1265 µM,0.954
same,relative viability,CAL-12T; first compound 0.4 µM,1.06
same,relative viability,CAL-12T; first compound 4 µM,0.796
same,relative viability,NCI-H727; first compound 0.04 µM,0.892
same,relative viability,NCI-H727; first compound 0.1265 µM,0.824
same,relative viability,NCI-H727; first compound 0.4 µM,0.804
same,relative viability,NCI-H727; first compound 4 µM,0.878
same,relative viability,NCI-H1650; first compound 0.04 µM,0.221
same,relative viability,NCI-H1650; first compound 0.1265 µM,0.23
same,relative viability,NCI-H1650; first compound 0.4 µM,0.192
same,relative viability,NCI-H1650; first compound 4 µM,0.183
same,relative viability,NCI-H441; first compound 0.04 µM,0.6
same,relative viability,NCI-H441; first compound 0.4 µM,0.445
same,relative viability,NCI-H441; first compound 4 µM,0.489
same,relative viability,NCI-H1437; first compound 0.04 µM,0.486
same,relative viability,NCI-H1437; first compound 0.1265 µM,0.529
same,relative viability,NCI-H1437; first compound 0.4 µM,0.489
same,relative viability,NCI-H1437; first compound 4 µM,0.45
same,relative viability,NCI-H2023; first compound 0.04 µM,1.06
same,relative viability,NCI-H2023; first compound 0.1265 µM,0.969
same,relative viability,NCI-H2023; first compound 0.4 µM,0.783
same,relative viability,NCI-H2023; first compound 4 µM,0.876
same,relative viability,EKVX; first compound 0.04 µM,1.19
same,relative viability,EKVX; first compound 0.1265 µM,1.02
same,relative viability,EKVX; first compound 0.4 µM,0.945
same,relative viability,EKVX; first compound 4 µM,0.705
same,relative viability,201T; first compound 0.04 µM,1.12
same,relative viability,201T; first compound 0.1265 µM,1.04
same,relative viability,201T; first compound 0.4 µM,1.16
same,relative viability,201T; first compound 4 µM,1.09
same,relative viability,LU99A; first compound 0.04 µM,1.11
same,relative viability,LU99A; first compound 0.1265 µM,1.15
same,relative viability,LU99A; first compound 0.4 µM,1.11
same,relative viability,LU99A; first compound 4 µM,1.1
same,relative viability,ABC-1; first compound 0.1265 µM,0.3
same,relative viability,ABC-1; first compound 0.4 µM,0.304
same,relative viability,ABC-1; first compound 4 µM,0.265
same,relative viability,NCI-H838; first compound 0.04 µM,0.715
same,relative viability,NCI-H838; first compound 0.1265 µM,0.689
same,relative viability,NCI-H838; first compound 0.4 µM,0.865
same,relative viability,NCI-H838; first compound 4 µM,0.643
same,relative viability,NCI-H3122; first compound 0.04 µM,1.06
same,relative viability,NCI-H3122; first compound 0.1265 µM,0.977
same,relative viability,NCI-H3122; first compound 0.4 µM,1.02
same,relative viability,NCI-H3122; first compound 4 µM,0.969
same,relative viability,NCI-H2009; first compound 0.04 µM,0.982
same,relative viability,NCI-H2009; first compound 0.1265 µM,1.01
same,relative viability,NCI-H2009; first compound 0.4 µM,0.933
same,relative viability,NCI-H2009; first compound 4 µM,0.714
same,relative viability,PC-14; first compound 0.04 µM,0.993
same,relative viability,PC-14; first compound 0.1265 µM,0.859
same,relative viability,PC-14; first compound 0.4 µM,0.798
same,relative viability,PC-14; first compound 4 µM,0.664
same,relative viability,COR-L 105; first compound 0.04 µM,0.741
same,relative viability,COR-L 105; first compound 0.1265 µM,0.896
same,relative viability,COR-L 105; first compound 0.4 µM,1.1
same,relative viability,COR-L 105; first compound 4 µM,0.484
same,relative viability,BEN; first compound 0.04 µM,0.624
same,relative viability,BEN; first compound 0.1265 µM,0.71
same,relative viability,BEN; first compound 0.4 µM,0.861
same,relative viability,BEN; first compound 4 µM,0.788
same,relative viability,COR-L23; first compound 0.04 µM,0.975
same,relative viability,COR-L23; first compound 0.1265 µM,0.996
same,relative viability,COR-L23; first compound 0.4 µM,0.984
same,relative viability,COR-L23; first compound 4 µM,0.795
same,relative viability,HARA; first compound 0.04 µM,1.14
same,relative viability,HARA; first compound 0.1265 µM,1.15
same,relative viability,HARA; first compound 0.4 µM,1.09
same,relative viability,HARA; first compound 4 µM,1.05
same,relative viability,HCC-366; first compound 0.04 µM,0.999
same,relative viability,HCC-366; first compound 0.1265 µM,1.04
same,relative viability,HCC-366; first compound 0.4 µM,1.24
same,relative viability,HCC-366; first compound 4 µM,0.978
